Patent US7687246B2, “Process for producing carotenoids” (DSM IP Assets B. V., priority 2002, dated 2010)

Assays:
Assay type in all cases: cell-based
[1] = test system: Phaffia rhodozyma ATCC96594; assay: Effect of the squalene synthase inhibitor on the cell growth of Phaffia rhodozyma (Example 1)
Experimental: Phaffia rhodozyma ATCC96594 (redeposited under the accession No. ATCC 74438 on Apr. 8, 1998 pursuant to the Budapest Treaty) was inoculated into YPD medium (DIFCO, Detroit, U.S.A., 10 mL in tube) and cultivated by shaking at 20° C. for 2 days. 0.5 mL of the culture was inoculated into fresh YPD medium (10 mL in tube) containing 30 g/L of glucose and 0, 0.2, 0.5, 1.0, 2.0, 5.0, 10.0, and 20.0, μg/mL, respectively, of [3-(3-allyl-biphenyl-4-yl-oxy)-propyl]-isopropyl-amine, and cultivated by shaking at 20° C. for 5 days. An aliquot of the culture was withdrawn occasionally during the cultivation, and optical density at 660 nm was measured by using UV-1200 photometer (Shimadzu Corp., Kyoto, Japan) for analysis of the cell growth.

[2] = test system: Phaffia rhodozyma ATCC96594; assay: Effect of the squalene synthase inhibitor on astaxanthin production by Phaffia rhodozyma (Example 2); conditions: for Astaxanthin content (relative values): relative to Day 7 without inhibitor = 100
Experimental: Phaffia rhodozyma ATCC96594 (redeposited under the accession No. ATCC 74438 on Apr. 8, 1998 pursuant to the Budapest Treaty) was inoculated into YPD medium as in Example 1 and cultivated by shaking at 20° C. for 2 days. 2.5 ml of the culture were inoculated into fresh YPD medium (50 mL in flask) containing 22 g/L of glucose and 0, 0.5, 1.0, 2.0, and 5.0, μg/mL, respectively, of [3-(3-allyl-biphenyl-4-yloxy)-propyl]-isopropyl-amine, and cultivated by shaking at 20° C. for 7 days. On Day 2 of the cultivation, 50 g/L of glucose was added to the culture. Addition of the inhibitor in the middle of the cultivation was also tested. An aliquot of the culture was withdrawn at Day 4 and Day 7 of the cultivation, and optical density at 660 nm (by using the same method described in Example 1) and astaxanthin content in the culture were measured. For analysis of the content of astaxanthin, the withdrawn broth was mixed with a solvent mixture (ethyl alcohol, hexane and ethyl acetate) and carotenoids were extracted from the cells of Phaffia rhodozyma by vigorous shaking with glass beads. After extraction, disrupted cells and glass beads were removed by centrifugation and the resultant supernatant was analyzed by HPLC for the astaxanthin content. The HPLC conditions used were as follows: [table] A reference sample of astaxanthin was obtained from Hoffmann La-Roche (Basel, Switzerland).

[3] = test system: Phaffia rhodozyma ATCC96594; assay: Cell growth of Phaffia rhodozyma during astaxanthin production culture (Example 2)
Experimental: An aliquot of the culture was withdrawn occasionally during the cultivation, and optical density at 660 nm was measured by using UV-1200 photometer (Shimadzu Corp., Kyoto, Japan) for analysis of the cell growth. Phaffia rhodozyma ATCC96594 (redeposited under the accession No. ATCC 74438 on Apr. 8, 1998 pursuant to the Budapest Treaty) was inoculated into YPD medium as in Example 1 and cultivated by shaking at 20° C. for 2 days. 2.5 ml of the culture were inoculated into fresh YPD medium (50 mL in flask) containing 22 g/L of glucose and 0, 0.5, 1.0, 2.0, and 5.0, μg/mL, respectively, of [3-(3-allyl-biphenyl-4-yloxy)-propyl]-isopropyl-amine, and cultivated by shaking at 20° C. for 7 days. On Day 2 of the cultivation, 50 g/L of glucose was added to the culture. Addition of the inhibitor in the middle of the cultivation was also tested. An aliquot of the culture was withdrawn at Day 4 and Day 7 of the cultivation, and optical density at 660 nm (by using the same method described in Example 1) and astaxanthin content in the culture were measured.

[4] = 5.0 μg/mL inhibitor added at Day 2 of the cultivation, Day 4
[5] = 5.0 μg/mL inhibitor added at Day 2 of the cultivation, Day 7
[6] = 5.0 μg/mL inhibitor from start, Day 4
[7] = 5.0 μg/mL inhibitor from start, Day 7

C=CCc1cc(-c2ccccc2)ccc1OCCCNC(C)C [[3-(3-allyl-biphenyl-4-yloxy)-propyl]-isopropyl-amine]
Cell growth (OD at 660 nm) ([1]; 0.2 μg/mL inhibitor, Day 1): 4.5 | Cell growth (OD at 660 nm) ([1]; 0.2 μg/mL inhibitor, Day 2): 16.7 | Cell growth (OD at 660 nm) ([1]; 0.2 μg/mL inhibitor, Day 3): 20.1 | Cell growth (OD at 660 nm) ([1]; 0.2 μg/mL inhibitor, Day 5): 19.3 | Cell growth (OD at 660 nm) ([1]; 0.5 μg/mL inhibitor, Day 1): 4.4 | Cell growth (OD at 660 nm) ([1]; 0.5 μg/mL inhibitor, Day 2): 15.6 | Cell growth (OD at 660 nm) ([1]; 0.5 μg/mL inhibitor, Day 3): 20.4 | Cell growth (OD at 660 nm) ([1]; 0.5 μg/mL inhibitor, Day 5): 19.4 | Cell growth (OD at 660 nm) ([1]; 1.0 μg/mL inhibitor, Day 1): 4.0 | Cell growth (OD at 660 nm) ([1]; 1.0 μg/mL inhibitor, Day 2): 15.0 | Cell growth (OD at 660 nm) ([1]; 1.0 μg/mL inhibitor, Day 3): 20.0 | Cell growth (OD at 660 nm) ([1]; 1.0 μg/mL inhibitor, Day 5): 19.5 | Cell growth (OD at 660 nm) ([1]; 2.0 μg/mL inhibitor, Day 1): 3.6 | Cell growth (OD at 660 nm) ([1]; 2.0 μg/mL inhibitor, Day 2): 15.0 | Cell growth (OD at 660 nm) ([1]; 2.0 μg/mL inhibitor, Day 3): 19.5 | Cell growth (OD at 660 nm) ([1]; 2.0 μg/mL inhibitor, Day 5): 19.0 | Cell growth (OD at 660 nm) ([1]; 5.0 μg/mL inhibitor, Day 1): 2.9 | Cell growth (OD at 660 nm) ([1]; 5.0 μg/mL inhibitor, Day 2): 12.3 | Cell growth (OD at 660 nm) ([1]; 5.0 μg/mL inhibitor, Day 3): 18.8 | Cell growth (OD at 660 nm) ([1]; 5.0 μg/mL inhibitor, Day 5): 18.0 | Cell growth (OD at 660 nm) ([1]; 10.0 μg/mL inhibitor, Day 1): 2.0 | Cell growth (OD at 660 nm) ([1]; 10.0 μg/mL inhibitor, Day 2): 5.6 | Cell growth (OD at 660 nm) ([1]; 10.0 μg/mL inhibitor, Day 3): 14.7 | Cell growth (OD at 660 nm) ([1]; 10.0 μg/mL inhibitor, Day 5): 16.9 | Cell growth (OD at 660 nm) ([1]; 20.0 μg/mL inhibitor, Day 1): 1.2 | Cell growth (OD at 660 nm) ([1]; 20.0 μg/mL inhibitor, Day 2): 1.7 | Cell growth (OD at 660 nm) ([1]; 20.0 μg/mL inhibitor, Day 3): 2.7 | Cell growth (OD at 660 nm) ([1]; 20.0 μg/mL inhibitor, Day 5): 7.0 | inhibition at 5 µg/mL ([1]; Phaffia rhodozyma, ATCC96594, 48 h, 5.0 μg/mL inhibitor, Day 2): ~23% | cell growth (effect in words) ([1]; concentration not higher than 2.0 μg/mL): not affected | Astaxanthin content (relative values) ([2]; 0.5 μg/mL inhibitor, Day 4): 75 | Astaxanthin content (relative values) ([2]; 0.5 μg/mL inhibitor, Day 7): 114 | Astaxanthin content (relative values) ([2]; 1.0 μg/mL inhibitor, Day 4): 77 | Astaxanthin content (relative values) ([2]; 1.0 μg/mL inhibitor, Day 7): 118 | Astaxanthin content (relative values) ([2]; 2.0 μg/mL inhibitor, Day 4): 75 | Astaxanthin content (relative values) ([2]; 2.0 μg/mL inhibitor, Day 7): 125 | Astaxanthin content (relative values) [2, 4]: 84 | Astaxanthin content (relative values) [2, 5]: 131 | Astaxanthin content (relative values) [2, 6]: 67 | Astaxanthin content (relative values) [2, 7]: 129 | Astaxanthin production (effect in words) ([2]; all conditions tested (0.5-5.0 μg/mL, from start or added at Day 2)): enhanced | Cell growth (OD at 660 nm) ([3]; 0.5 μg/mL inhibitor, Day 4): 39.6 | Cell growth (OD at 660 nm) ([3]; 0.5 μg/mL inhibitor, Day 7): 39.8 | Cell growth (OD at 660 nm) ([3]; 1.0 μg/mL inhibitor, Day 4): 40.3 | Cell growth (OD at 660 nm) ([3]; 1.0 μg/mL inhibitor, Day 7): 39.8 | Cell growth (OD at 660 nm) ([3]; 2.0 μg/mL inhibitor, Day 4): 38.2 | Cell growth (OD at 660 nm) ([3]; 2.0 μg/mL inhibitor, Day 7): 39.3 | Cell growth (OD at 660 nm) [3, 4]: 37.4 | Cell growth (OD at 660 nm) [3, 5]: 37.9 | Cell growth (OD at 660 nm) [3, 6]: 40.2 | Cell growth (OD at 660 nm) [3, 7]: 39.5
